In brackets after ≈: the same amount, converted by molar mass. Activity calls are given as the source filed them. The calls are words filed in the database; no cut-off is given here.
Key:
[1] = biological target: Sodium channel protein type 10 subunit alpha (Mus musculus, UniProt Q6QIY3); test: Inhibition of TTX-resistant Nav1.8 in mouse dorsal root ganglion neuron by voltage clamp recording; type: tissue-based, DRG neuron
[2] = biological target: Sodium channel protein type 2 subunit alpha (Homo sapiens, UniProt Q99250); test: Inhibition of human Nav1.2 alpha subunit expressed in HEK293 cells co-expressing beta1 subunit at -35 mV holding potential by PatchXpress automated voltage clamp electrophysiology technique; type: cell-based
[3] = biological target: Sodium channel protein type 9 subunit alpha (Homo sapiens, UniProt Q15858); test: Inhibition of human Nav1.7 alpha subunit expressed in HEK293 cells co-expressing beta1 subunit at -60 mV holding potential by whole-cell patch voltage clamp electrophysiology recording; type: cell-based
[4] = Clearance in Beagle dog at 0.5 mg/kg, iv; type: ADME, organism-based, Canis lupus familiaris; details: in vivo
Cytochrome P450 2C19 = Cytochrome P450 2C19 (Homo sapiens, UniProt P33261); test: Inhibition of CYP2C19 (unknown origin); type: ADME
[5] = Drug concentration in plasma of FVB mouse model of aconitine-induced pain expressing human Nav1.7 I848T mutant at 10 mg/kg, po administered 120 mins prior to aconitine administered and measured after 70 mins by UPLC-ESI MS/MS analysis; type: ADME, organism-based; details: time 190 min
[6] = Drug concentration in brain of FVB mouse model of aconitine-induced pain expressing human Nav1.7 I848T mutant at 10 mg/kg, po administered 120 mins prior to aconitine administered and measured after 70 mins by UPLC-ESI MS/MS analysis; type: ADME, organism-based; details: time 190 min, read-out: Ct
[7] = AUC in Beagle dog at 1 mg/kg, po; type: ADME, organism-based, Canis lupus familiaris; parameters: dose 1 mg/kg, route po; details: in vivo
[8] = Unbound plasma concentration in FVB mouse model of aconitine-induced pain expressing human Nav1.7 I848T mutant at 0.3 mg/kg, po administered 120 mins prior to aconitine administration and measured after 70 mins by UPLC-ESI MS/MS analysis; type: ADME, organism-based; details: in vivo, 3.167 h, time 190 min
[9] = Lipophilicity, logD of the compound at pH 7.4; type: physicochemical; details: buffer, read-out: logD
[10] = Half-life in Beagle dog at 0.5 mg/kg, iv; type: ADME, organism-based, Canis lupus familiaris; details: in vivo
[11] = system: mouse breast cancer resistant protein (Bcrp); test: Apparent permeability from apical to basolateral side in MDCK-II cells expressing mouse breast cancer resistant protein; type: ADME, cell-based, Canis lupus familiaris; details: dog
[12] = Cmax in FVB mouse at 30 mg/kg, po; type: ADME, organism-based; parameters: dose 30 mg/kg, route po; details: in vivo
[13] = AUC in Sprague-Dawley rat at 5 mg/kg, po; type: ADME, organism-based; parameters: dose 5 mg/kg, route po; details: in vivo
[14] = Half-life in Beagle dog at 1 mg/kg, po; type: ADME, organism-based, Canis lupus familiaris; details: in vivo
[15] = Protein binding in mouse plasma; type: ADME, cell-free; details: read-out: PPB (converted)
Mus musculus [16] = test: Analgesic activity against formalin-induced pain in FVB mouse model assessed as reduction in formalin-induced pain at 10 mg/kg, po administered for 120 mins prior to formalin challenge and measured after 11 to 40 mins; type: functional, organism-based; details: time 131-160 min
Mus musculus [17] = test: Antinociceptive activity against aconitine-induced pain in FVB mouse model expressing human Nav 1.7 I848T mutant assessed as reduction in nociceptive behavior at 3 mg/kg, po administered 120 mins prior to aconitine administration and measured after 70 mins relative to control; type: functional; parameters: scale not given: the % may be the effect or the level left; details: time 190 min, 3.167 h
[18] = biological target: Sodium channel protein type 5 subunit alpha (Homo sapiens, UniProt Q14524); test: Inhibition of human Nav1.5 alpha subunit expressed in HEK293 cells co-expressing beta1 subunit at -60 mV holding potential by PatchXpress automated voltage clamp electrophysiology technique; type: cell-based
[19] = Kinetic solubility of compound; type: physicochemical; details: read-out: Kinetic_solubility
[20] = Volume of distribution at steady state in Beagle dog at 0.5 mg/kg, iv; type: ADME, organism-based, Canis lupus familiaris; details: in vivo, read-out: Vdss
[21] = Drug concentration in brain of FVB mouse model of aconitine-induced pain expressing human Nav1.7 I848T mutant at 3 mg/kg, po administered 120 mins prior to aconitine administered and measured after 70 mins by UPLC-ESI MS/MS analysis; type: ADME, organism-based; details: time 190 min, read-out: Ct
MDR1 = test: Efflux ratio of apparent permeability across basolateral to apical side over apical to basolateral side in MDCK1 cells expressing MDR1; type: ADME, cell-based, Canis lupus familiaris; details: dog, MDCK-MDR1
[22] = Cmax in Beagle dog at 1 mg/kg, po; type: ADME, organism-based, Canis lupus familiaris; parameters: dose 1 mg/kg, route po; details: in vivo
[23] = Protein binding in human plasma; type: ADME, cell-free; details: read-out: PPB (converted)
[24] = Protein binding in rat plasma; type: ADME, cell-free; details: read-out: PPB (converted)
Mus musculus [25] = test: Antinociceptive activity against aconitine-induced pain in FVB mouse model expressing human Nav 1.7 I848T mutant assessed as reduction in nociceptive behavior at 10 mg/kg, po administered 120 mins prior to aconitine administration and measured after 70 mins relative to control; type: functional; parameters: scale not given: the % may be the effect or the level left; details: time 190 min, 3.167 h
[26] = Oral bioavailability in FVB mouse at 30 mg/kg; type: ADME, organism-based; details: in vivo
Cytochrome P450 2D6 = Cytochrome P450 2D6 (Homo sapiens, UniProt P10635); test: Inhibition of CYP2D6 (unknown origin); type: ADME
[27] = Cmax in Sprague-Dawley rat at 5 mg/kg, po; type: ADME, organism-based; parameters: dose 5 mg/kg, route po; details: in vivo
Mus musculus [28] = test: Antinociceptive activity against aconitine-induced pain in FVB mouse model expressing human Nav 1.7 I848T mutant assessed as reduction in nociceptive behavior at 0.1 mg/kg, po administered 120 mins prior to aconitine administration and measured after 70 mins relative to control; type: functional; parameters: scale not given: the % may be the effect or the level left; details: time 190 min, 3.167 h
[29] = Drug concentration in plasma of FVB mouse model of aconitine-induced pain expressing human Nav1.7 I848T mutant at 3 mg/kg, po administered 120 mins prior to aconitine administered and measured after 70 mins by UPLC-ESI MS/MS analysis; type: ADME, organism-based; details: time 190 min
[30] = biological target: Sodium channel protein type 9 subunit alpha (Rattus norvegicus, UniProt O08562); test: Inhibition of rat Nav1.7 at -60 mV holding potential by PatchXpress automated voltage clamp electrophysiology technique
Homo sapiens = organism: Homo sapiens; test: Inhibition of voltage-gated sodium channel (unknown origin) at 10 uM relative to control
Mus musculus [31] = test: Antinociceptive activity against aconitine-induced pain in FVB mouse model expressing human Nav 1.7 I848T mutant assessed as reduction in nociceptive behavior at 0.3 mg/kg, po administered 120 mins prior to aconitine administration and measured after 70 mins relative to control; type: functional; parameters: scale not given: the % may be the effect or the level left; details: time 190 min, 3.167 h

Sodium channel protein type 9 subunit alpha (Rattus norvegicus, UniProt O08562), sequence (O08562 whole entry): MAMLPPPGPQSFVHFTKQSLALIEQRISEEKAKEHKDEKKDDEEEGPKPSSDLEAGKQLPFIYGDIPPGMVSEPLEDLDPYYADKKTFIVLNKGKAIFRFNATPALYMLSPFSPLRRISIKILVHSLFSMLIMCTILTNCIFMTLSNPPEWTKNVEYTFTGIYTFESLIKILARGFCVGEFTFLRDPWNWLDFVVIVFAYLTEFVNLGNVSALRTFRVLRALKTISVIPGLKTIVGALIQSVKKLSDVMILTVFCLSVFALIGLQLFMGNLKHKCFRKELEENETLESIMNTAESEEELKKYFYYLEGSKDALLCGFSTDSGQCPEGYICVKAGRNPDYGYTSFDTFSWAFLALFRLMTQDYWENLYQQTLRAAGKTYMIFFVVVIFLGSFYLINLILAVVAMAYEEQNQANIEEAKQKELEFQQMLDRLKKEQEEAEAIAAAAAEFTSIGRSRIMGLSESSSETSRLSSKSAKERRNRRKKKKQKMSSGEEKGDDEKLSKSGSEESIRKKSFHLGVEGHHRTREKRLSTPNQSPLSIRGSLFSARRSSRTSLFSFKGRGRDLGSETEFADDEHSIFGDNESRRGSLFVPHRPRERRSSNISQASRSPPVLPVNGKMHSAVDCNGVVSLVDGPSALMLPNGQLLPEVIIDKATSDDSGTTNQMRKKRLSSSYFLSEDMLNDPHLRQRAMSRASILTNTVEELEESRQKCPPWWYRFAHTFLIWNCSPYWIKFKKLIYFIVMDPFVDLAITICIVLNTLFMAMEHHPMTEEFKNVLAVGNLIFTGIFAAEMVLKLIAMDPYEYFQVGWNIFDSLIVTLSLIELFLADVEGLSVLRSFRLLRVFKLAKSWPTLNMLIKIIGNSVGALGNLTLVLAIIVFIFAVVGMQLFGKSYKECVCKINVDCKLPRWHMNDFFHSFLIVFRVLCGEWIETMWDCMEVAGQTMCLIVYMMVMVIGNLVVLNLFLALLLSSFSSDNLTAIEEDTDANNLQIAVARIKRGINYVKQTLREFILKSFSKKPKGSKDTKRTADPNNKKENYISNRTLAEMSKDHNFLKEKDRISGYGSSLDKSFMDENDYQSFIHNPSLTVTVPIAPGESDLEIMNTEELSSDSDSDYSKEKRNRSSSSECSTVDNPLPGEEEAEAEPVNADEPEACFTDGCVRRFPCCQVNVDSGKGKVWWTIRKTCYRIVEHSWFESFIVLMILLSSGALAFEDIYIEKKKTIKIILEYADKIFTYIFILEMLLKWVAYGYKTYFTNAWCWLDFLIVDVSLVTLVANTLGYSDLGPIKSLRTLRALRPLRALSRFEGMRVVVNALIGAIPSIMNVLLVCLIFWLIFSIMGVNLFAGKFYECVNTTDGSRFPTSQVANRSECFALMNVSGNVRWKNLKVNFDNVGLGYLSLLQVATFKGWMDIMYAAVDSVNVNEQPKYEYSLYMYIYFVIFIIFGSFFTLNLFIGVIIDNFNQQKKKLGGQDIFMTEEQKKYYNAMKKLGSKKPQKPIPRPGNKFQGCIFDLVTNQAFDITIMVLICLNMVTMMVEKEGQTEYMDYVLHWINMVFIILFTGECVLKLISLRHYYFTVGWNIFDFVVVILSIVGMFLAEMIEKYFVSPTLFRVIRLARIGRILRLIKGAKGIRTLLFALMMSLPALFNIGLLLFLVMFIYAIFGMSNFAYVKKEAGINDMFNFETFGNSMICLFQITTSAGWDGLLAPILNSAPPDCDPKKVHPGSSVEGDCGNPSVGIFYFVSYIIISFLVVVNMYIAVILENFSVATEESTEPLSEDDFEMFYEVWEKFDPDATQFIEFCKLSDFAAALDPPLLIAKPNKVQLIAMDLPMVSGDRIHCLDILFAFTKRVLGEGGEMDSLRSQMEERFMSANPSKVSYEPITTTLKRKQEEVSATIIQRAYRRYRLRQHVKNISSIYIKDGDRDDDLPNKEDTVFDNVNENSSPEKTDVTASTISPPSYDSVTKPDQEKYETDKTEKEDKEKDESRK
Sodium channel protein type 2 subunit alpha, sequence (Q99250 whole entry): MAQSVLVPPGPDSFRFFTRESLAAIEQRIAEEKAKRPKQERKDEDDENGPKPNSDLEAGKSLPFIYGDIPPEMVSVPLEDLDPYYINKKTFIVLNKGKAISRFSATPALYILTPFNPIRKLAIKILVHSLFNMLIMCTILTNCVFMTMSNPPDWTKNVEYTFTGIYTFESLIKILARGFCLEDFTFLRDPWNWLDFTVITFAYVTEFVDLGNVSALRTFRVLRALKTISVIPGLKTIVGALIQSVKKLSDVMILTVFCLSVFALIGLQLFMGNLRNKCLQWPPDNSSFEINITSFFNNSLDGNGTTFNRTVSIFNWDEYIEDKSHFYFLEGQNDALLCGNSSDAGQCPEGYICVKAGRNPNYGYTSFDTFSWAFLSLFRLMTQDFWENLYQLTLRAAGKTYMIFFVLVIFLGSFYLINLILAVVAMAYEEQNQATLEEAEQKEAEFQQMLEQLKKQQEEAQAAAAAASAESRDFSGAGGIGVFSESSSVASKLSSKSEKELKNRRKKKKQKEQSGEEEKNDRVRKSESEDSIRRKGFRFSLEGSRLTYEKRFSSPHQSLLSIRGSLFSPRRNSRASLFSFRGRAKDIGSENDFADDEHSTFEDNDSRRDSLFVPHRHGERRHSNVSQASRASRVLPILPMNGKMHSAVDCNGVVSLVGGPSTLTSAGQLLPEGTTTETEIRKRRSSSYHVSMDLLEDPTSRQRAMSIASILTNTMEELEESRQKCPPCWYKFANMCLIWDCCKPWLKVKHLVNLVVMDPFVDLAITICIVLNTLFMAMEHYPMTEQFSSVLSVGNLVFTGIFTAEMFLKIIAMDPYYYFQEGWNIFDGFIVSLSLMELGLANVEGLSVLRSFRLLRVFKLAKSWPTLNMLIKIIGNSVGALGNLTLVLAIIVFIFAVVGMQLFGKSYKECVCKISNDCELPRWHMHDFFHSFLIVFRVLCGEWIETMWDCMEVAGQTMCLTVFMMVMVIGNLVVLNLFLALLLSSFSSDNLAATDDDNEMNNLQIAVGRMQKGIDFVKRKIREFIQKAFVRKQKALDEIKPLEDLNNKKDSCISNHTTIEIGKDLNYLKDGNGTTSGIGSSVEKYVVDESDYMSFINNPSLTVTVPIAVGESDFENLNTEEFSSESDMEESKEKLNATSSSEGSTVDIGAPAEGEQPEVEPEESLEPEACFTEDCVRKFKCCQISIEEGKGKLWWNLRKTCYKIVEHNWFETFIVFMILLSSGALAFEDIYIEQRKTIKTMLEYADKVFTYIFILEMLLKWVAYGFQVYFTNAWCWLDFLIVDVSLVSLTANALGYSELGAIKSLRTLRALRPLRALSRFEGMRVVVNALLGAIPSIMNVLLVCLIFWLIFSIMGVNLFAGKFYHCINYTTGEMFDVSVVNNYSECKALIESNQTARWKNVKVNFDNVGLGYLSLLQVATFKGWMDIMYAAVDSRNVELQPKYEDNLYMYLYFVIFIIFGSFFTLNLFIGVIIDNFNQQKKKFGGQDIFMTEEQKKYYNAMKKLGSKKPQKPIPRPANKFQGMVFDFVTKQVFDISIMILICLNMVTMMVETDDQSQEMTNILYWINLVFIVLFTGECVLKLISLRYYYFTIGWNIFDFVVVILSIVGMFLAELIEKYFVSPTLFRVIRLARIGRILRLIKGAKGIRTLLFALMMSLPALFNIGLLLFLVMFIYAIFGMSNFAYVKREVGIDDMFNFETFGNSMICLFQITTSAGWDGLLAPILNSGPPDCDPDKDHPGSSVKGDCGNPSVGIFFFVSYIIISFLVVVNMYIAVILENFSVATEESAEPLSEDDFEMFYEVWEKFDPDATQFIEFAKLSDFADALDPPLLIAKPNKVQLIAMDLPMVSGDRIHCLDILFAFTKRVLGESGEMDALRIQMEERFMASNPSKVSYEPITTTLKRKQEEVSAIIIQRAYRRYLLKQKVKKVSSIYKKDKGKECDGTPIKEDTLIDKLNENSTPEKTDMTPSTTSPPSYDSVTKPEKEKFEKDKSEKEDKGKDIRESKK
Cytochrome P450 2D6, sequence (P10635 whole entry): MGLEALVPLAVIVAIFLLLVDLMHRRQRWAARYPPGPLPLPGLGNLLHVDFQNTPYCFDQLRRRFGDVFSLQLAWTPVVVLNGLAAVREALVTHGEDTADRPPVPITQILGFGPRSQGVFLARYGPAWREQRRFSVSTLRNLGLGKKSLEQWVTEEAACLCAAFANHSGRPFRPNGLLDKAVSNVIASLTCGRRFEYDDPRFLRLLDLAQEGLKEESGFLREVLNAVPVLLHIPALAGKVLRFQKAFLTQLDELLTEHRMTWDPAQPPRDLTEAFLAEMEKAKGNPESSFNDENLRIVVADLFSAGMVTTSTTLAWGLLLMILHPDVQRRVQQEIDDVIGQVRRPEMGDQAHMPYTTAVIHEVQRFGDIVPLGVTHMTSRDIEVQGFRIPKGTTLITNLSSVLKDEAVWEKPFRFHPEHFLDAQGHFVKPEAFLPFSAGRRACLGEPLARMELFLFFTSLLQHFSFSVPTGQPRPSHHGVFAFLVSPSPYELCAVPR
Cytochrome P450 2C19, sequence (P33261 whole entry): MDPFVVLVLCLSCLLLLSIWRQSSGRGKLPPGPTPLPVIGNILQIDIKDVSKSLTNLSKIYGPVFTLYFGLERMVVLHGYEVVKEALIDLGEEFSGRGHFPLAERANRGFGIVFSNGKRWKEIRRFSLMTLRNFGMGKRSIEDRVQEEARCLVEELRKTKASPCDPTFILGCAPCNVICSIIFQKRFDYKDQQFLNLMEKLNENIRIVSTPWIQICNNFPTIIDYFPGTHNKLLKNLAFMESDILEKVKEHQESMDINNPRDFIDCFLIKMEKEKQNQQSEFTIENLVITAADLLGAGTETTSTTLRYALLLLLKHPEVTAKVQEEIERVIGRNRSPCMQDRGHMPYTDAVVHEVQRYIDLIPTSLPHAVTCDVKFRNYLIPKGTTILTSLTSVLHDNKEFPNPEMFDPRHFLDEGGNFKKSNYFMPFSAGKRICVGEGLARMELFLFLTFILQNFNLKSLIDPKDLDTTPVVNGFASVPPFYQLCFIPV

## CC1(COc2cc(F)c(C(=O)NS(=O)(=O)C3CC3)cc2C2CC2)CCC2(CC1)CC2
[1]
  IC50: > 10000 nM
[2]
  IC50: 2 nM
[3]
  IC50: 0.6 nM
[4]
  clearance: 0.3 mL/min/kg
Cytochrome P450 2C19
  IC50: > 10000 nM
[5]
  concentration at 3.167 h: 79 µM
[6]
  concentration at 3.167 h: 6.2 µM
[7]
  AUC: 83 µM·h
[8]
  Cp(f): 0.003 µM
[9]
  logD: 2.1
[10]
  half-life: 5.4 h
[11]
  Papp A→B: 5.1 ×10⁻⁶ cm/s
[12]
  Cmax: 22 µM
[13]
  AUC: 78 µM·h
[14]
  half-life: 6 h
[15]
  fraction unbound: 0.001
Mus musculus [16]
  Activity: Active
Mus musculus [17]
  Activity: 98%
[18]
  IC50: 50 nM
[19]
  solubility kinetic: 10 µM (≈ 4.36 µg/mL)
[20]
  Vd: 0.14 L/kg
[21]
  concentration at 3.167 h: 1.9 µM
MDR1
  efflux ratio: 1.2
[22]
  Cmax: 9 µM
[23]
  fraction unbound: 0.001
[24]
  fraction unbound: 0.001
Mus musculus [25]
  Activity: 99.5%
[26]
  bioavailability: 31%
Cytochrome P450 2D6
  IC50: > 10000 nM
[27]
  Cmax: 13 µM
Mus musculus [28]
  Activity: 10%
[29]
  concentration at 3.167 h: 25 µM
[30]
  IC50: 3.7 nM
Homo sapiens
  inhibition: 80%
Mus musculus [31]
  Activity: 78%

Source: ChEMBL document CHEMBL5260838 (J Med Chem, 2019)
